Test results: US12241902B2, “Probes for detection of copper” (The Regents of the University of California, priority 2019, dated 2025)

What was measured:
[1] = Oxidation state specificity of the ratiometric response
Description: (§1) (A) Changes in corrected emission spectra of FCP-1 (5 μM) in aqueous buffer solution. […] (B) Corrected emission spectra of FCP-1 measured at various concentrations. […] (D) Changes in F526/F576 ratio of FCP-1 (5 μM) towards various biologically relevant metal ions, as well as cobalt(II)-containing vitamin B12. Black bars represent the ratiometric emission response observed upon addition of competing metal ions (1 mM for Na^+, K^+, Mg^2+ and Ca^2+, and 10 μM for all the other d-block metal ions as well vitamin B12) after 15 min. Red bars represent the ratiometric emission response upon subsequent addition of 10 μM of Cu(I) after 15 min. (E) Emission spectra and (F) F526/F576 emission ratio of FCP-1 (5 μM) with addition of Cu(II) (10 μM), Cu(II) (10 μM)+GSH (2 mM), or Cu(I) (10 μM)+GSH (2 mM) after 15 min. All spectra were acquired in aqueous buffer (PBS with 2 mM GSH and 40 vol % PEG-400) with λex=458 nm.
UV-vis absorption and emission measurements. FCP-1 stock solution in DMSO (5 mM) was prepared, aliquoted and stored at […]. For each spectroscopic measurement, a fresh aliquot was diluted to 500 μM by DMSO and further diluted with PBS containing 2 mM GSH/PEG-400 mixture (3:2, v/v) to prepare the sensing solution with 5 μM of FCP-1. […] Photoluminescence quantum yield (PLQY) was determined using fluorescein in 0.1 M NaOH solution (0.95; λex=496 nm). […]

[2] = Metal ion selectivity of the ratiometric fluorescence change
Description: as §1
(§2) UV-vis absorption and emission measurements. FCP-1 stock solution in DMSO (5 mM) was prepared, aliquoted and stored at […]. For each spectroscopic measurement, a fresh aliquot was diluted to 500 μM by DMSO and further diluted with PBS containing 2 mM GSH/PEG-400 mixture (3:2, v/v) to prepare the sensing solution with 5 μM of FCP-1. The sensing solution was pre-incubated in a water bath at 37° C., and then [Cu(CH3CN)](PF6) in MeCN or other metal ions in H2O was added. The solution mixture was kept at 37° C. and taken out for UV-vis absorption or emission spectroscopic measurements in quartz cuvette at predetermined time intervals. Emission spectra were corrected using coumarin 153 as secondary emission standard (4). Photoluminescence quantum yield (PLQY) was determined using fluorescein in 0.1 M NaOH solution (0.95; λex=496 nm). FRET efficiency from the fluorescein moiety to rhodamine moiety of FCP-1 was estimated by [1−(PLQY of FCP-1/PLQY of FL-TPA)].
This oxidation state-specificity is important for the applications of FCP-1 in imaging dynamic changes in intracellular labile Cu(I) pools under redox stress and oncogenic transformation.

[3] = Ratiometric fluorescence response (F526/F576) to Cu(I) in aqueous buffer
Description: as §2
The ratiometric fluorescence change of FCP-1 at 526 and 576 nm (F526/F576) was rapid and reached saturation after ca. 30 min in the presence of a two-fold excess of Cu(I) (10 μM).

[4] = test system: labile Cu(I) in Ctr1^+/+ MEFs; assay: Confocal fluorescence imaging of labile Cu(I) in Ctr1+/+ MEFs; format: cell-based, mouse
Description: (A) Confocal fluorescence microscopy images of Ctr1^+/+ MEFs and Ctr1^−/− MEFs treated with solvent control, CuCl2 (100 or 300 μM) or BCS (500 μM) in complete medium for 8 h, washed with complete medium and PBS, incubated with FCP-1 (5 μM) in DPBS for 45 min, and then imaged with λex=458 nm. (B) Average cellular ratiometric emission ratios of FCP-1, Fgreen/Forange, as determined from experiments performed in triplicate. (C) Total cellular ^63Cu levels were determined by ICP-MS experiments (with normalization of different cell numbers by total cellular ^31P level). (D) Confocal fluorescence microscopy images of Ctr1^+/+ MEFs and Ctr1^−/− MEFs incubated with FL-TPA (5 μM) in DPBS for 45 min. The cells were then imaged with λex=488 nm. (E) Average cellular fluorescence intensity of FL-TPA, FFL-TPA, determined from experiments performed in triplicate with λex=488 nm. Error bars denote SD (n=3). *p<0.05, **p<0.01 and ***p<0.001.
Cell culture. Following cell cultures were grown: Human embryonic kidney (HEK 293T) cells were maintained in Dulbecco's Modified Eagle Medium (DMEM) supplemented with 10 vol % fetal bovine serum (FBS), 1 vol % GlutaMax (Gibco) and 1 vol % non-essential amino acids (NEAA, Gibco). Ctrl1^+/+ and Ctr1^−/− MEF cells were maintained in DMEM with 10 vol % FBS, 1 vol % non-essential amino acids, 1 vol % sodium pyruvate and 0.1 vol % 2-mercaptoethanol or DMEM supplemented with 10 vol % FBS and 1× Penicillin-Streptomycin. Human cervical epithelial carcinoma (HeLa) was maintained in DMEM medium supplemented with 1 vol % GlutaMAX and 10 vol % FBS. All cells were incubated in 5% CO2 humidified air and subcultured at 80% confluence.
Confocal fluorescence microscopy imaging. For confocal fluorescence imaging experiments of HEK293T, MEF Ctr1^+/+ and Ctr1^−/− and HeLa cells, the cells were plated on 8-well Lab Tek borosilicate chambered coverglass slides (Nunc), and allowed to grow to ca. 60% confluency before performing the cell imaging experiments. The confocal imaging was performed with a Zeiss laser scanning microscope 710 with 20× or 63× oil-immersion objective lens using Zen 2009 software (Carl Zeiss). FCP-1 was excited with 458 nm with an Ar laser, and the emissions were collected using a META detector between 465 and 541 nm (Fgreen), and between 559 and 710 nm (Forange). DRAQ-5 was excited with a 633 nm He Ne laser, and its emission was collected using a META detector between 661 and 759 nm. Image analysis was performed using ImageJ, with ratiometric images generated by the Ratio Plus plugin of ImageJ. For quantification, a threshold value was set as background and the average intensity of the whole image was measured by ImageJ. All experiments were performed in triplicate, and statistical analyses were performed with a two-tailed Student's t-test (MS excel).
Having established that FCP-1 is sensitive to endogenous pools of labile Cu(I) under basal conditions and can respond to changes in labile Cu(I) pools upon pharmacological copper supplementation and/or depletion, the application of FCP-1 to visualize alterations in endogenous labile Cu(I) pools through genetic manipulation was explored. To this end, comparative FCP-1 imaging was performed in mouse embryonic fibroblast cells that are either Cu-replete (Ctr1^+/+ MEFs) or Cu-deficient (Ctr1^−/− MEFs) through knockout of the high-affinity copper transporter CTR1 (64-66).
Complementary ICP-MS measurements confirm that total copper levels in Ctr1^−/− MEFs are lower than Ctr1^+/+ MEFs (FIG. 12C). […]

[5] = FCP-1 5 μM, Cu(I) 10 μM, over time, λex 458 nm

CC[N+](CC)=c1ccc2c(-c3ccccc3C(=O)O)c3ccc(N4CCN(Cc5cccc(CN(Cc6ccccn6)Cc6cccc(COc7ccc8c(-c9ccccc9C(=O)OC)c9ccc(=O)cc-9oc8c7)n6)n5)CC4)cc3oc-2c1 [FCP-1]
emission spectra and F526/F576 ratio with Cu(II) and excess glutathione ([1]; Cu(II) 10 μM + GSH 2 mM, compared with Cu(I) 10 μM + GSH 2 mM): identical to that obtained by treating FCP-1 with Cu(I) and excess glutathione
ratiometric response to Cu(II) ([1]; Cu(II) 10 μM, 15 min): does not respond ratiometrically
change in ratiometric signal with cobalamin (vitamin B12) ([2]; 10 μM cobalamin): no significant changes in ratiometric signal
selectivity of ratiometric fluorescence change ([2]; 1 mM Na+, K+, Mg2+, Ca2+, 10 μM d-block metal ions, 15 min): selective toward Cu(I) over other biologically relevant metal ions
change of fluorescence with free Co(II) ([2]; Co(II) 10 μM): altered FCP-1 fluorescence modestly
detection of Cu(I) in competitive experiments ([2]; solutions containing other biologically relevant metal ions, then 10 μM Cu(I)): ability of FCP-1 to detect Cu(I)
F526/F576 ratio with Cu(I) at different GSH concentrations ([3]; FCP-1 5 μM, Cu(I) 10 μM, 15 min, PBS with 40 vol % PEG-400): higher F526/F576 ratios at lower GSH concentrations
fluorescein emission at 526 nm upon addition of Cu(I) [3, 5]: increase in fluorescein emission at 526 nm
rhodamine fluorescence at 576 nm upon addition of Cu(I) [3, 5]: drop in rhodamine fluorescence at 576 nm
total fluorescence at higher probe concentrations ([3]; aqueous buffer, λex 458 nm (FIG. 8)): less fluorescent at higher concentrations
time to saturation of ratiometric fluorescence change F526/F576 ([3]; two-fold excess of Cu(I) (10 μM)): ca. 30 min
cellular viability by nuclear stain DRAQ5 ([4]; Ctr1+/+ MEFs (FIG. 13)): cellular viability was maintained
Fgreen/Forange ratio after BCS ([4]; Ctr1+/+ MEFs, BCS): reduction in Fgreen/Forange ratio
Fgreen/Forange ratio after CuCl2 ([4]; Ctr1+/+ MEFs, varying concentrations of CuCl2): dose-dependent increase
Fgreen/Forange ratio, Ctr1+/+ MEFs compared to Ctr1−/− MEFs ([4]; basal, FCP-1 5 μM, p<0.01): higher Fgreen/Forange ratios
